Patent publication US20250025397A1, “AN OIL-IN-WATER EMULSION GEL COMPRISING TIOTROPIUM BROMIDE” (Dryox Health, S.L., priority 2021, published 2025)
Where two headings read alike, the source gives them in different places.

Tests used:
[1] = Tiotropium maximum solubility in a selection of excipients; type: physicochemical
Experimental: For the evaluation of the compatibility of the active in each excipient, 25 mg of tiotropium bromide (TTB) were weighed in suitable glass containers and increasing amounts of the appropriate solvent were added. The samples were subjected to heating and ultrasonication when necessary. The appearance of the mixture and the maximum concentration of TTB in each solvent was recorded.
The solubility of the active was determined in different excipients (polymer solvents, permeation enhancers, surfactants, emollients, etc.). Table 1 summarizes the maximum solubility achieved in each of them.

[2] = cited from earlier work

C[N+]1(C)[C@@H]2CC(OC(=O)C(O)(c3cccs3)c3cccs3)C[C@H]1[C@@H]1O[C@@H]12.[Br-] (stereo partly drawn) [Tiotropium bromide, [(1S,2S,4R,5R)-9,9-dimethyl-3-oxa-9-azoniatricyclo[3.3.1.0^2,4]nonan-7-yl]2-hydroxy-2,2-dithiophen-2-ylacetate bromide]
Maximum solubility ([1]; in 1,3-propanediol): 2.50 % (w/w) | Maximum solubility ([1]; in Benzyl Alcohol): 50.00 % (w/w) | Maximum solubility ([1]; in Cremophor EL): 0.20 % (w/w) | Maximum solubility ([1]; in Cremophor RH40): <0.12 % (w/w) | Maximum solubility ([1]; in DMSO): >30.00 % (w/w) | Maximum solubility ([1]; in Dimethyl fomamide): 40.00 % (w/w) | Maximum solubility ([1]; in Ethanol): 0.80 % (w/w) | Maximum solubility ([1]; in Ethyl Oleate): <0.12 % (w/w) | Maximum solubility ([1]; in Glycerol): 6.00 % (w/w) | Maximum solubility ([1]; in IPM): <0.12 % (w/w) | Maximum solubility ([1]; in Isopropyl Alcohol): 0.13 % (w/w) | Maximum solubility ([1]; in Kollicream ® 3C): <0.12 % (w/w) | Maximum solubility ([1]; in Labrasol): 0.55 % (w/w) | Maximum solubility ([1]; in Lactic acid): 20.00 % (w/w) | Maximum solubility ([1]; in Linseed oil): <0.12 % (w/w) | Maximum solubility ([1]; in MCT): <0.12 % (w/w) | Maximum solubility ([1]; in Oleic acid): <0.12 % (w/w) | Maximum solubility ([1]; in PEG-400): 1.67 % (w/w) | Maximum solubility ([1]; in Polysorbate 20): 1.15 % (w/w) | Maximum solubility ([1]; in Polysorbate 80): 0.20 % (w/w) | Maximum solubility ([1]; in Propylene Glycol): 5.00 % (w/w) | Maximum solubility ([1]; in Transcutol HP): <0.12 % (w/w) | Maximum solubility ([1]; in Triacetin): <0.12 % (w/w) | Maximum solubility ([1]; in Triolein): <0.12 % (w/w) | solubility ([2]; in dimethyl sulphoxide): freely soluble | solubility ([2]; in methanol): soluble | solubility ([2]; in methylene chloride): practically insoluble | solubility ([2]; in water): sparingly soluble | solubility in aqueous solutions ([2]; room temperature, independent of pH): approx. 2.5%
